Assay results from patent publication US11020451B2, “Methods for treating fibrotic cancers” (Promedior, Inc., priority 2013, dated 2021).

Experiments:
Assay type in all cases: in vivo, human
[1] = tested on: myelofibrosis (MF) patients; experiment: Bone marrow fibrosis grade (European Consensus) and bone marrow response, same study; conditions: for number of patients with decrease in bone marrow fibrosis by ≥1 grade: all treatment arms, at 12 or 24 weeks or both; for bone marrow fibrosis grade change: after 12 weeks
Method: (§1) Recombinant human SAP, in this case the recombinant human SAP known as PRM-151, was administered to myelofibrosis (MF) patients, alone and in combination with ruxolitinib (RUX), to evaluate safety and efficacy in treating bone marrow fibrosis (BMF). Patients with Intermediate-1, Intermediate-2, or high risk MF with grade ≥2 BMF, either not receiving therapy or on a stable dose of RUX, were eligible for this study.
(§2) Twenty-seven patients were assigned to one of four cohorts based on administration of PRM-151 as a monotherapy or as part of a combination therapy. Cohort 1: i) patients who received no treatment for MF in at least two weeks, ii) were administered an initial loading dose of SAP at 10 mg/kg by intravenous infusion (˜1 hour infusion) on days 1, 3, and 5, and iii) thereafter were administered a dose of SAP every four weeks at 10 mg/kg by intravenous infusion (˜1 hour infusion). Cohort 2: i) patients who received no treatment for MF in at least two weeks, ii) were administered an initial loading dose of SAP at 10 mg/kg by intravenous infusion (˜1 hour infusion) on days 1, 3, and 5, and iii) thereafter were administered a dose of SAP every week at 10 mg/kg by intravenous infusion (˜1 hour infusion). Cohort 3: i) patients on a stable dose (e.g., on ruxolitinib for at least 3 months without any dose modifications) of ruxolitinib for at least 12 weeks with no improvement in spleen during the last four weeks, ii) were administered an initial loading dose of SAP at 10 mg/kg by intravenous infusion (˜1 hour infusion) on days 1, 3, and 5 iii) thereafter were administered a dose of SAP every week at 10 mg/kg by intravenous infusion (˜1 hour infusion), and iv) were administered RUX orally at the dose at which they entered the study. Cohort 4: i) patients on a stable dose (e.g., on ruxolitinib for at least 3 months without any dose modifications) of ruxolitinib for at least 12 weeks with no improvement in spleen during the last four weeks, ii) were administered an initial loading dose of SAP at 10 mg/kg by intravenous infusion (˜1 hour infusion) on days 1, 3, and 5 iii) thereafter were administered a dose of SAP every four weeks at 10 mg/kg by intravenous infusion (˜1 hour infusion), and iv) were administered RUX orally at the dose at which they entered the study.
(§3) Patients in each cohort were monitored for improvements in BMF and other MF-related complications including, for example, abnormal blood cell parameters, splenomegaly, and symptoms as assessed by the MPN-SAF. In particular, patients were monitored for overall response rate according to the International Working Group consensus criteria for treatment response in myelofibrosis with myeloid metaplasia (Tefferi A, Cervantes F, Mesa R, et al. Revised response criteria for myelofibrosis: International Working Group-Myeloproliferative Neoplasms Research and Treatment (IWG-MRT) and European LeukemiaNet (ELN) consensus report. Blood. 2013; 122:1395-1398). Patients were also monitored for incidence of adverse events, changes in bone marrow fibrosis according to the European Consensus of Grading Bone Marrow Fibrosis (Thiele J, Kvasnicka H M, Facchetti F, et al. European consensus on grading bone marrow fibrosis and assessment of cellularity. Haematologica 2005; 90:1128-1132.), changes in the modified Myeloproliferative Neoplasma Symptom Assessment Form (MPN-SAF) Score (Emanuel et al. 2012, Journal of Clinical Oncology 30(33): 4098-4103), as well as pharmacokinetic parameters including, for example, maximum drug concentration (Cmax), time to maximum concentration (Tmax), area under the curve (AUC), clearance, and volume of distribution.
Bone marrow biopsies were obtained at baseline and after three months of therapy and were reviewed. […] As detailed below, these improvements in BMF have borne out upon further analysis of the data across further treatment periods.
Clinical response assessment, including assessment of spleen size, MPN-SAF, and CBC, was carried out every 4 weeks. […]

[2] = tested on: myelofibrosis (MF) patients; experiment: MPN-SAF Total Symptom Score and IWG-MRT symptom response, same study; conditions: for number of patients with measurable symptom response (TSS reduction): alone; for MPN-SAF TSS response: patient 101-005 (Cohort 1), 24-30 weeks of monotherapy
Method: as §1, §2, §3
(§4) Clinical response assessment, including assessment of spleen size, MPN-SAF, and CBC, was carried out every 4 weeks. BM biopsies were carried out at baseline, 12 weeks, and 24 weeks. The IWG-MRT symptom and bone marrow responses observed at 24 weeks of this study are summarized below in Table 3. […]

[3] = tested on: myelofibrosis (MF) patients; experiment: Spleen size / spleen response, same study; conditions: for number of patients with measurable decrease in spleen size: alone; for spleen size response: patient 101-005 (Cohort 1), 24-30 weeks of monotherapy
Method: as §1, §2, §3, §4

[4] = tested on: myelofibrosis (MF) patients; experiment: Hemoglobin, platelets (CBC) and red blood cell transfusions, same study; conditions: for hemoglobin response / platelet response: patient 101-005 (Cohort 1), 24-30 weeks of monotherapy
Method: as §1, §2, §3, §4

[5] = tested on: myelofibrosis (MF) patients; experiment: Adverse events, tolerability and myelosuppression, Stage 1 study of PRM-151 alone and with ruxolitinib; conditions: for safety and tolerability: MF patients, alone and in combination with RUX; for treatment-related myelosuppression: after 24 weeks of therapy, all four cohorts
Method: as §1, §2, §3
The numbers indicated in each column below the grade indicate the number of patients in which the adverse event was reported.

[6] = a number of patients in all 4 treatment arms
[7] = Cohort 1: 10 mg/kg IV Q4W alone, 24 weeks
[8] = Cohort 2: 10 mg/kg IV QW alone, 24 weeks

Which results are given for “PRM-151: recombinant human SAP (serum amyloid P, pentraxin-2), α2,3-sialic acid-containing, expressed in CHO cells”?
bone marrow responses, number ([1]; Cohort 1: Q4W alone, 24 weeks): 2 bone marrow responses; bone marrow responses, number ([1]; Cohort 1: Q4W alone, 24 weeks, listed as recombinant human SAP): 2; bone marrow responses, number ([1]; Cohort 2: QW alone, 24 weeks): 1 bone marrow response; number of patients with decrease in bone marrow fibrosis by ≥1 grade [1]: 5; number of patients with decrease in bone marrow fibrosis by ≥1 grade ([1]; listed as recombinant human SAP): five; bone marrow responses, number ([1]; in 10 additional patients evaluated at 36 weeks, alone or in combination): 3; number of subjects with improvement in BMF ([1]; of 27 subjects examined, biopsies at baseline and after three months, all cohorts): 5; bone marrow fibrosis grade change ([1]; one Cohort 1 patient (every four weeks, alone)): Grade 2 to Grade 0; bone marrow fibrosis grade change ([1]; one Cohort 2 patient (weekly, alone)): Grade 3 to Grade 2; bone marrow fibrosis grade change (reticulin staining) ([1]; patient 101-005 (Cohort 1), 12 weeks / three months): Grade 2 to Grade 0; bone marrow fibrosis grade change (reticulin staining) ([1]; patient 108-003 (Cohort 4), six months): Grade 2 to Grade 1; bone marrow fibrosis grade change (reticulin staining) ([1]; patient 108-003 (Cohort 4), three months): Grade 3 to Grade 2; durability of response ([1]; patients responsive at the 12- or 24-week mark, following 36 weeks of treatment): continued to respond; symptom response ≥8 weeks, number ([2]; Cohort 1: Q4W alone, 24 weeks): 1 symptom response ≥8 weeks; number of patients with measurable symptom response (TSS reduction) ([2]; Cohort 1: every 4 weeks): 4; confirmed symptom responses (≥12 weeks), number ([2]; Cohort 2: QW alone, 24 weeks): 2 confirmed symptom responses (≥12 weeks); symptom response ≥8 weeks, number ([2]; Cohort 2: QW alone, 24 weeks): 1 symptom response ≥8 weeks; number of patients with measurable symptom response (TSS reduction) ([2]; Cohort 2: weekly): 1; additional subjects with 50% decrease in symptom score lasting ≥8 weeks ([2]; less than 50% on Cycle 6 Day 29): Two; number of patients with reduction in MPN-SAF TSS compared to baseline ([2]; of 18 evaluated patients followed to C6D29 or beyond, all four arms): 10; number of patients with ≥50% reduction in Total Symptom Score ([2]; on Cycle 6 Day 29, all arms): 5; MPN-SAF TSS response [2]: decrease; MPN-SAF TSS response ([2]; listed as rhSAP): reduction; number of patients with measurable decrease in spleen size ([3]; Cohort 1: every 4 weeks): 3; spleen response ≥8 weeks, number ([3]; Cohort 2: QW alone, 24 weeks): 1 spleen response ≥8 weeks; number of patients with measurable decrease in spleen size ([3]; Cohort 2: weekly): 2; number of patients with ≥20% reduction in spleen volume ([3]; all treatment arms, 24 weeks): five; number of patients with reduction in spleen size compared to baseline ([3]; of 13 evaluated patients with palpable spleen followed to C6D29 or beyond, all four arms): 10; reduction in spleen volume ([3]; one patient, Cohort 2 (weekly, alone), lasting 8 weeks): 50%; spleen size response [3]: decrease; spleen size response ([3]; listed as rhSAP): reduction; hemoglobin levels [4, 6]: Improvement; platelet levels [4, 6]: Improvement; red blood cell transfusions [4, 6]: decrease; hemoglobin response [4]: increase; platelet response [4]: increase; hemoglobin response ([4]; listed as rhSAP): improvement; platelet response ([4]; listed as rhSAP): improvement; Abdominal pain Gr 3, number of patients [5, 7]: 1; Fatigue Gr 2, number of patients [5, 7]: 2; Neuropathy Peripheral Gr 2, number of patients [5, 7]: 1; Abdominal pain Gr 3, number of patients [5, 8]: 1; Alanine aminotransferase increased Gr 2, number of patients [5, 8]: 1; safety and tolerability ([5]; listed as SAP): good tolerability; safety and tolerability ([5]; listed as rhSAP): safe and well tolerated; treatment-related myelosuppression [5]: no apparent treatment-related myelosuppression; treatment-related myelosuppression ([5]; listed as rhSAP): no evidence of clinically significant myelosuppression
